What was measured:
GCGR with RAMP2 [1] = biological target: T1, GCGR with RAMP2 (Homo sapiens, UniProt O60895+P47871); experiment: cAMP accumulation assay, HEK-293 cells co-expressing GCGR and RAMP2; format: cell-based; settings: Table 3, cAMP
T1 construct: expressed in transfected cells; host or cells: HEK-293 (293T)
Method: (§1) Data were analyzed using Prism version 6.0e (GraphPad Software, San Diego, CA). EC50 and Emax values were obtained through fitting of a three-parameter logistic equation. Relative efficacy (log τ) and equilibrium dissociation constants (log KA) were generated through use of an operational model for partial agonism ([23]). […] Statistical differences were analyzed before data were normalized, using a Student's test or one-way analysis of variance (ANOVA) with Bonferroni's or Dunnett's multiple comparisons as appropriate, and p < 0.05 was considered significant.

GCGR with RAMP2 [2] = biological target: T1, GCGR with RAMP2; experiment: Yeast growth reporter assay, GPA1/Gαs chimera strain expressing GCGR and RAMP2; format: cell-based; settings: Table 4, yeast GPA1/Gαs
Method: (§2) General yeast procedures were performed as described previously ([17], [18]). […] Mammalian GPCRs and RAMPs were introduced to the yeast strains under the control of the GAPDH promoter using plasmids containing either ura3 (p426-GPD) or leu2 (p425-GPD). Plasmids were transformed in a 1:1 ratio to enable equal expression levels of both the RAMP and receptors. Transformation was achieved using the lithium acetate/single-stranded DNA/polyethylene glycol method as described previously ([20]). Positive transformants were selected and maintained on medium lacking uracil and leucine. Receptor signaling was measured using the yeast growth assay ([21]) adapted as described previously ([17]). Initially, cell growth was performed in SD−URA−LEU medium at 30 °C to select for only those cells expressing both plasmids. Cells were then cultured to remove basal activity in SD−URA−LEU−HIS medium overnight at 30 °C and assayed using fluorescein-di-β-D-glucopyranoside-supplemented medium in the presence of different concentrations of ligand (0.01 nM to 100 mM). Fluorescence was measured on a TECAN Infinite M200 microplate reader (TECAN Ultra Evolution, Reading, UK).
as §1

GCGR [3] = biological target: T2, GCGR (Homo sapiens, UniProt P47871); experiment: Yeast growth reporter assay, GPA1/Gαi chimera strain expressing GCGR with vector; format: cell-based; set-up: expressed in transfected cells; host or cells: HEK-293 (293T)
Method: as §2, with “Cells were then cultured to remove basal activity in SD−URA−LEU−HIS medium overnight at 30 °C and assayed using fluorescein-di-β-D-glucopyranoside-supplemented medium in the presence of different concentrations of ligand (0.01 nM to 100 mM).” left out
(§3) Data were analyzed using Prism version 6.0e (GraphPad Software, San Diego, CA). […] Statistical differences were analyzed before data were normalized, using a Student's test or one-way analysis of variance (ANOVA) with Bonferroni's or Dunnett's multiple comparisons as appropriate, and p < 0.05 was considered significant.

GCGR [4] = biological target: T2, GCGR; experiment: cAMP accumulation assay, HEK-293 cells expressing GCGR with vector control; format: cell-based; set-up: expressed in transfected cells; host or cells: HEK-293 (293T)
Method: as §1

GCGR with RAMP2 [5] = biological target: T1, GCGR with RAMP2; experiment: Yeast growth reporter assay, GPA1/Gαi chimera strain expressing GCGR and RAMP2; format: cell-based; settings: Table 5, yeast GPA1/Gαi
Method: as §2, §1

GCGR [6] = biological target: T2, GCGR; experiment: Yeast growth reporter assay, GPA1/Gαs chimera strain expressing GCGR with vector; format: cell-based; set-up: expressed in transfected cells; host or cells: HEK-293 (293T)
Method: as §2, with “Cells were then cultured to remove basal activity in SD−URA−LEU−HIS medium overnight at 30 °C and assayed using fluorescein-di-β-D-glucopyranoside-supplemented medium in the presence of different concentrations of ligand (0.01 nM to 100 mM).” left out
as §3

GCGR with RAMP2 [7] = biological target: T1, GCGR with RAMP2; experiment: Whole cell competition binding with [125I]glucagon, GCGR with RAMP2; settings: whole cells, [125I]glucagon 0.1 nM, 16 h at 4 °C
GCGR [8] = biological target: T2, GCGR; experiment: Whole cell competition binding with [125I]glucagon, GCGR without RAMP2; set-up: expressed in transfected cells; settings: no RAMP2
Method: Cells were seeded into 6-well plates and grown to 80% confluence before transfection with 1.5 μg of plasmid DNA and incubated for a further 24 h. Medium was then replaced with fresh DMEM, and cells were transferred onto a 96-well plate coated with poly-D-lysine and incubated for 24 h to achieve confluence prior to assay. […] For the assay, cells were washed in assay buffer, 0.1 nM of radioligand and various concentrations of the peptides were added, and the plate was incubated for 16 h at 4 °C. Following washing with ice-cold assay buffer, 100 μl of NaOH (0.1 M) was added to each well, and the plate was incubated for 5 min on ice. Cells were removed, and the plate was washed with 100 μl of HCl (0.1 M). Radioactivity was determined in 2 ml of Safefluor scintillant (PerkinElmer Life Sciences) using a liquid scintillation counter with a count time of 3 min/sample. Values were corrected for nonspecific binding as determined by the amount of radioligand detected bound to cells not expressing GCGR.

[9] = GCGR + RAMP2, mean ± S.E., five repeats
[10] = RAMP2, operational model relative to glucagon
[11] = RAMP2, percentage of glucagon response without RAMP co-expression

T2 sequence (P47871 26-477): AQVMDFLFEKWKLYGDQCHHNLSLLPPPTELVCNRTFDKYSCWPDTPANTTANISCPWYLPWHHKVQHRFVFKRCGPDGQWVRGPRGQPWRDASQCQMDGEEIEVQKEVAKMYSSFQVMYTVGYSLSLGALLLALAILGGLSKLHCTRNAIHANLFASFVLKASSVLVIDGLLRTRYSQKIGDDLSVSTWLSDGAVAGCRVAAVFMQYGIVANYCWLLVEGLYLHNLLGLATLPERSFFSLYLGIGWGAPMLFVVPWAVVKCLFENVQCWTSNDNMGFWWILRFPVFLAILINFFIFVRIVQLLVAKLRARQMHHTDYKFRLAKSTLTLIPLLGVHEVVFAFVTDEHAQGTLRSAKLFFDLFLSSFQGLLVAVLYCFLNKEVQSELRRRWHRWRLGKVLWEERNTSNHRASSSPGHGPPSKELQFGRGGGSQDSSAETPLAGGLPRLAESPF
T1 sequence (P47871 26-477): as above
T1 sequence (O60895 43-175 partner): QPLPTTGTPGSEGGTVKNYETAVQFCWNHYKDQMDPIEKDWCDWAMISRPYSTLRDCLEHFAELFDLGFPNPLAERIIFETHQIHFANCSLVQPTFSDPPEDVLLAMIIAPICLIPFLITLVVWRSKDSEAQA

For `CCCCCCCCCCCCCCCC(=O)N[C@@H](CCC(=O)NCCCC[C@H](NC(=O)[C@H](C)NC(=O)[C@H](C)NC(=O)[C@H](CCC(N)=O)NC(=O)CNC(=O)[C@H](CCC(=O)O)NC(=O)[C@H](CC(C)C)NC(=O)[C@H](Cc1ccc(O)cc1)NC(=O)[C@H](CO)NC(=O)[C@H](CO)NC(=O)[C@@H](NC(=O)[C@H](CC(=O)O)NC(=O)[C@H](CO)NC(=O)[C@@H](NC(=O)[C@H](Cc1ccccc1)NC(=O)[C@@H](NC(=O)CNC(=O)[C@H](CCC(=O)O)NC(=O)[C@H](C)NC(=O)[C@@H](N)Cc1c[nH]cn1)[C@@H](C)O)[C@@H](C)O)C(C)C)C(=O)N[C@@H](CCC(=O)O)C(=O)N[C@@H](Cc1ccccc1)C(=O)N[C@H](C(=O)N[C@@H](C)C(=O)N[C@@H](Cc1c[nH]c2ccccc12)C(=O)N[C@@H](CC(C)C)C(=O)N[C@H](C(=O)N[C@@H](CCCNC(=N)N)C(=O)NCC(=O)N[C@@H](CCCNC(=N)N)C(=O)NCC(=O)O)C(C)C)[C@@H](C)CC)C(=O)O` [Liraglutide], which “log τ” value (GCGR with RAMP2 [1]; GCGR + RAMP2, coupling efficiency, operational model relative to glucagon) is on record?
The value was “N.R”.

And the pKA (GCGR with RAMP2 [1]; GCGR + RAMP2, operational model for partial agonism relative to glucagon)?
Its pKA is “N.R”.

What about the Emax (GCGR with RAMP2 [1]; GCGR + RAMP2, percentage of glucagon response without RAMP co-transfection) of the same compound?
Its Emax is “N.R”.

And the pEC50 (GCGR with RAMP2 [1]; HEK-293, GCGR + RAMP2, mean ± S.E., five repeats)?
Its pEC50 is “N.R”.

And the pEC50 (GCGR with RAMP2 [2]; [9])?
Its pEC50 is “N.R”.

And the “log τ” value (GCGR with RAMP2 [2]; [10])?
The value was “N.R”.

What about the pKA (GCGR with RAMP2 [2]; [10]) of the same compound?
The pKA was “N.R”.

And the Emax (GCGR with RAMP2 [2]; [11])?
The Emax was “N.R”.

And the Emax (GCGR [3])?
The Emax was 84 ± 9.4%.

And the EC50 (GCGR [3]; Table 5, yeast GPA1/Gαi, GCGR + vector, mean ± S.E., five repeats, SEM)?
Its EC50 is 20 nM.

What about the EC50 (GCGR [4]; Table 3, cAMP, HEK-293, GCGR + vector, mean ± S.E., five repeats, SEM) of the same compound?
Its EC50 is 10 nM.

And the pEC50 (GCGR with RAMP2 [5]; [9])?
The pEC50 was “N.R”.

What about the “log τ” value (GCGR with RAMP2 [5]; [10]) of the same compound?
The value was “N.R”.

And the pKA (GCGR with RAMP2 [5]; [10])?
The pKA was “N.R”.

What about the Emax (GCGR with RAMP2 [5]; [11]) of the same compound?
The Emax was “N.R”.

And the Emax (GCGR [6])?
Its Emax is 80.1 ± 7.5%.

And the EC50 (GCGR [6]; Table 4, yeast GPA1/Gαs, GCGR + vector, mean ± S.E., five repeats, SEM)?
Its EC50 is 3160 nM.

What about the “binding to the GCGR upon RAMP2 co-transfection” value (GCGR with RAMP2 [7]) of the same compound?
Its value is “failed to bind”.

And the “affinity for the GCGR relative to the native peptide (glucagon)” value (GCGR [8]; whole cell competition binding)?
The value was “higher affinity”.

What about the “binding to the GCGR in competition with glucagon” value (GCGR [8]; whole cells, [125I]glucagon 0.1 nM, 16 h at 4 °C) of the same compound?
Its value is “bound to the GCGR”.

des-His^1-[Glu^9]glucagon(1–29) amide was tested. Which “effect of GCGR antagonist on GLP-1 and liraglutide signaling through the GCGR” value (GCGR [4]; cAMP, HEK-293 cells with GCGR) did it give?
The value was “inhibited”.

— publication PMC4645630 (The Journal of Biological Chemistry, 2015)
